One compound from patent publication US20110092517A1, “Use of PPAR Delta Ligands for the Treatment or Prevention of Inflammation or Energy Metabolism/Production Related Diseases” (Cerenis Therapeutics S.A. & Nippon Chemiphar Co., Ltd., priority 2009, published 2011) can be followed below.

Changes are numbered by the printed parent chain. “Also recorded” adds a separate entry of the source. Read-outs that look alike come from different tables or passages of the source.

The nature of assay [1]: Oral glucose tolerance test after 3 weeks of treatment in WD fed rats. The assay is classed as in vivo, rat. The note with it: 6 h fasted, oral glucose 2.5 g/kg after 3 weeks.
A further assay has as its target T1, mouse PPARδ (Mus musculus, UniProt P35396).
T1 construct: amino acids 139-440 for m; expressed in transfected cells; host or cells: CV-1
T1 sequence (P35396 139-440): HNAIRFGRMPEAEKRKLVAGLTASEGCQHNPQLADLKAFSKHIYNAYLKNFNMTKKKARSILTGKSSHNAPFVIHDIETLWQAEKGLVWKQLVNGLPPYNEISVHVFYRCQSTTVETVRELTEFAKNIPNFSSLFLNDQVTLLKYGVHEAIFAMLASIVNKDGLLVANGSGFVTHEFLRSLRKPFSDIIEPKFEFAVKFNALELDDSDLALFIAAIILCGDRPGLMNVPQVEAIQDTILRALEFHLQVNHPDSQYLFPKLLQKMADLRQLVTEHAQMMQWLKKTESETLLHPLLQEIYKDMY
Nature of the assay: GAL4-PPAR chimera transactivation assay in CV-1 cells at 10% or 0.1% serum (Example 4). The assay is classed as cell-based. As to conditions: read-out: GAL4-chimera (mouse) EC50 (μM) hPPARδ.

The next assay has as its target T2, rat PPARδ (Rattus norvegicus, UniProt Q62879).
T2 construct: expressed in transfected cells; host or cells: CV-1
T2 sequence (Q62879 139-440 limits assumed): T1 sequence (P35396 139-440) with H29Q, V73I, L96P, L181I, D205V, R240Q
Described as above. The assay is classed as cell-based. The note with it: read-out: GAL4-chimera (rat) EC50 (μM) hPPARδ. As for the experimental part: Assays were performed in triplicate for GAL4-chimeras. Experiments were repeated at least three times.
The EC50 were calculated as previously described.
The transactivation activities of the compound I.1 and GW501516 are measured in rat and mouse transactivation assays at 10% and 0.1% serum (Tables 11 and 12).

Assay [2] is described as follows: Euglycemic-hyperinsulinemic 2 steps clamp with 3H-glucose after 5 weeks of treatment in WD fed rats. Format: in vivo, rat. On the procedure: After 4 weeks of treatment, a catheter was implanted into the femoral vein under isoflurane anaesthesia and a period of 5-6 days was respected for recovery. […] The morning of the clamp procedure, rats were treated and fasted for 6 hours prior to tracer, glucose and insulin infusions. The beginning of the clamp procedure was performed in the middle of the dark cycle.
The euglycemic hyperinsulinemic 2 steps insulin clamp was performed using 0.2 U/kg/h and 0.8 U/kg/h insulin infusion associated with 3H-glucose infusion. We then assessed:
During the clamp procedure, a bolus (30 μCi) of D-[3-3H]glucose was first injected followed by 4 μCi/min/kg infusion rate during all the experiment to ensure a detectable plasma D[3-3H]glucose enrichment. A bolus of insulin (100 mU) was first injected, and insulin was then infused at a rate of 0.2 U/kg/h for the first 2 hours and 0.8 U/kg/h from 120 minutes to 210 minutes.
Throughout the infusion, glycaemia was assessed with a blood glucose meter from the tip of the tail vein when needed. Euglycemia was maintained by periodically (every 10 minutes) adjusting a variable infusion of 30% glucose. Plasma glucose concentrations and D-[3-3H]glucose specific activity were determined during stable phase in 10 μl of blood sampled from the tip of the tail vein every 20 minutes from 60 to 120 minutes during the first step and from 150 to 210 minutes during the second step.
For glucose turnover measurements, D-[3-3H]glucose enrichments were determined from total blood after deproteinization by a Zn(OH)2 precipitate. Briefly, an aliquot of the supernatant was evaporated to dryness to determine the radioactivity corresponding to D-3-3H. In a second aliquot of the same supernatant, glucose concentration was assessed by the glucose oxidase method (Biomérieux, France).
Calculations for glucose turnover measurements were made from parameters obtained during the infusions in steady-state condition ([…]). Briefly, the D-[3-3H]glucose specific activity was calculated by dividing the D-[3-3H]glucose enrichment by the plasma glucose concentration. The whole body glucose turnover rate was calculated by dividing the rate of D[3-3H]glucose by the D-[3-3H]glucose plasma specific activity. For each rat, the mean values were calculated and averaged with values from rats of the same group. The whole body glycolysis rate was measured by assessing the amount of tritiated water accumulated in the blood during the 3H-glucose infusion and the whole body glycogen synthesis rate was calculated by the difference between the whole body glucose turnover and the whole body glycolysis rate.

A further assay concerns the target T3, rat PPARα (Rattus norvegicus, UniProt P37230).
T3 construct: expressed in transfected cells; host or cells: CV-1
T3 sequence (P37230 239-466 limits assumed): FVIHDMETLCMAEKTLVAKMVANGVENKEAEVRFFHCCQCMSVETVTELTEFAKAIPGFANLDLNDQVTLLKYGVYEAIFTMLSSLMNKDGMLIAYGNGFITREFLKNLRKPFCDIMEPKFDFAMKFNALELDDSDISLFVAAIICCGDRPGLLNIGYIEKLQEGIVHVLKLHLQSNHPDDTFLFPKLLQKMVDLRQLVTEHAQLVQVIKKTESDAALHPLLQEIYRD
Nature of the assay: GAL4-PPAR chimera transactivation assay in CV-1 cells at 10% or 0.1% serum (Example 4). Format: cell-based. The note with it: read-out: GAL4-chimera (rat) EC50 (μM) hPPARα.

In another assay the target is T4, rat PPARγ (Rattus norvegicus, UniProt O88275).
T4 construct: expressed in transfected cells; host or cells: CV-1
T4 sequence (O88275 238-503 limits assumed): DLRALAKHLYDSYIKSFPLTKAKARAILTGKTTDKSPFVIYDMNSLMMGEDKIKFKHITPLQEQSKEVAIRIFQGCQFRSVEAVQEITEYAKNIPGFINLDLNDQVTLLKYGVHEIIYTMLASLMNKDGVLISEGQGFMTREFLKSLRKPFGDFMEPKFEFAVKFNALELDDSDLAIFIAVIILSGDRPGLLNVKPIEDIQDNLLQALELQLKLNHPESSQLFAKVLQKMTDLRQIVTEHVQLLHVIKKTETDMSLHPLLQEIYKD
The assay is described as above. Format: cell-based. As to conditions: read-out: GAL4-chimera (rat) EC50 (μM) hPPARγ.

With `Cc1cc(C(=O)CCc2sc(-c3ccc(C(F)(F)F)cc3)nc2C(C)C)ccc1OCC(=O)O` [compound I.1, 4-[3-[4-Isopropyl-2-[4-(trifluoromethyl)phenyl]-5-thiazolyl]propionyl]-2-methylphenoxyacetic acid], the “Glucose tolerance (OGTT, AUC, glycemia variation)” value in assay [1] (compound I.1 3 mg/kg) was “slight tendency to improve glucose tolerance”; in assay [1] (pioglitazone 10, metformin 50, GW501516 10, compound I.1 10 mg/kg) it was “significantly improved glucose tolerance”. For the same compound, the 50% effective concentration (EC50) (as a rule, the concentration at which the effect is half-maximal) was 0.065 ± 0.001 µM at mouse PPARδ (0.1% serum); 0.327 ± 0.07 µM at mouse PPARδ (10% serum); 0.118 ± 0.031 µM at rat PPARδ (0.1% serum); 0.692 ± 0.177 µM at rat PPARδ (10% serum); > 10 µM at rat PPARα (0.1% serum); > 10 µM on rat PPARα (10% serum). Further, the EC50 at rat PPARγ (0.1% serum) and on rat PPARγ (10% serum) was > 10 µM throughout. Also, in assay [2] (WD fed rats, after 5 weeks, compound I.1 dose not specified (3 and 10 mg/kg groups), pioglitazone 10, metformin 50 mg/kg), the “Insulin resistance / insulin sensitizing effect (overall)” value was “improved insulin resistance in a lesser extent than pioglitazone and metformin, but was more effective than GW501516; also recorded: insulin sensitizing effect, less marked than metformin”. The “Whole body glucose oxidation” value in assay [2] (WD fed rats, clamp after 5 weeks, metformin 50 mg/kg, compound I.1 dose not specified, alone or associated) is recorded as “tended to increase”. Also, the “Increase of GIR (glucose infusion rate) during the first step” value in assay [2] (clamp 0.2 U/kg/h insulin, after 5 weeks, compound I.1 3 mg/kg) is listed as 105%. Further, the “Decrease of HGP (hepatic glucose production)” value in assay [2] (clamp 0.2 U/kg/h insulin, compound I.1 3 mg/kg) was determined as 22%. Also, in assay [2] (clamp 0.8 U/kg/h insulin, metformin 50, GW501516 10, compound I.1 10 mg/kg (alone or +metformin 50 mg/kg)), the Increase of glycolysis was determined as 42%.
